Key:
[1] = Maximum absorption wavelength band and absorbance, Shimadzu UV-1800 UV-vis spectrophotometer; format: physicochemical
Protocol: (§1) The maximum absorption wavelength bands and absorbance were measured using Shimadzu UV-1800 UV-vis. Spectrophotometer. Whether having lipid solubility was determined to be lipid soluble when the solubility of the compounds in MEK, PGMEA, cyclo-hexanone, or toluene was 1 wt % or more.

[2] = Whether having lipid solubility (solubility in MEK, PGMEA, cyclo-hexanone, or toluene); format: physicochemical
Protocol: as §1

Row | Maximum absorption wavelength band [1] | SMILES | Whether having lipid solubility [2]
1 | 500-600 nm | CCCCOc1ccc(/N=N/c2ccc(N3CCN(c4ccc(/N=N/c5ccc(OCCCC)cc5)cc4)CC3)cc2)cc1 [Compound A124] | ∘ (determined to be lipid soluble when the solubility of the compounds in MEK, PGMEA, cyclo-hexanone, or toluene was 1 wt % or more)
2 | 500-600 nm | CCN(CC)c1ccc(/N=N/c2ccc(N3CCN(c4ccc(/N=N/c5ccc(N(CC)CC)cc5O)cc4)CC3)cc2)c(O)c1 [Compound A132] | ∘ (determined to be lipid soluble when the solubility of the compounds in MEK, PGMEA, cyclo-hexanone, or toluene was 1 wt % or more)
3 | 500-600 nm | CCCCN(C)c1ccc(/N=N/c2ccc(N3CCN(c4ccc(/N=N/c5ccc(N(C)CCCC)cc5)cc4)CC3)cc2)cc1 [Compound A133] | ∘ (determined to be lipid soluble when the solubility of the compounds in MEK, PGMEA, cyclo-hexanone, or toluene was 1 wt % or more)
4 | 500-600 nm | C=C(C)C(=O)N(CC)c1ccc(/N=N/c2ccc(N3CCN(c4ccc(/N=N/c5ccc(N(CC)C(=O)C(=C)C)cc5C)cc4)CC3)cc2)c(C)c1 [Compound A138] | ∘ (determined to be lipid soluble when the solubility of the compounds in MEK, PGMEA, cyclo-hexanone, or toluene was 1 wt % or more)
5 | ≥ 600- nm | CCCCN(C)c1ccc(/N=N/c2ncc(-c3cnc(/N=N/c4ccc(N(C)CCCC)cc4)s3)s2)cc1 [Compound B117] | ∘ (determined to be lipid soluble when the solubility of the compounds in MEK, PGMEA, cyclo-hexanone, or toluene was 1 wt % or more)
6 | ≥ 600- nm | CCN(CC)c1ccc(/N=N/c2ncc(-c3cnc(/N=N/c4ccc(N(CC)CC)cc4O)s3)s2)c(O)c1 [Compound B123] | ∘ (determined to be lipid soluble when the solubility of the compounds in MEK, PGMEA, cyclo-hexanone, or toluene was 1 wt % or more)
7 | ≥ 600- nm | Cc1c(O)c(/N=N/c2ncc(-c3cnc(/N=N/c4cc5ccc(N)cc5c(C)c4O)s3)s2)cc2ccc(N)cc12 [Compound B127] | ∘ (determined to be lipid soluble when the solubility of the compounds in MEK, PGMEA, cyclo-hexanone, or toluene was 1 wt % or more)
8 | 400-500 nm | CCCCOc1ccc(/N=N/c2ccc(/C=C/c3ccc(/N=N/c4ccc(OCCCC)cc4)cc3)cc2)cc1 [Compound C103] | ∘ (determined to be lipid soluble when the solubility of the compounds in MEK, PGMEA, cyclo-hexanone, or toluene was 1 wt % or more)
9 | 500-600 nm | Nc1ccc(/N=N/c2ccc(-c3ccc(-c4ccc(/N=N/c5ccc(N)cc5)cc4)cc3)cc2)cc1 [Compound D110] | ∘ (determined to be lipid soluble when the solubility of the compounds in MEK, PGMEA, cyclo-hexanone, or toluene was 1 wt % or more)

— patent publication US10442931B2, “Dye compound, composition comprising dye compound, and display device using dye compound” (Samsung Display Co. Ltd., priority 2017, dated 2019)
